US20070065485A1, “Therapeutic delivery of carbon monoxide” (priority 2003, published 2007)
Read-outs that look alike come from different tables or passages of the source.

Experiments:
[1] = test system: aortic rings pre-contracted with phenylephrine; assay: Isolated aortic ring preparation: vessel relaxation in rings pre-contracted with phenylephrine (3 μM); format: cell-based, male Lewis rats; settings: for percentage of relaxation compared to control: after 10 min
Method: Transverse ring sections of thoracic aorta were isolated from male Lewis rats and suspended under a 2 g tension in an organ bath containing oxygenated Krebs-Henseleit buffer at 37° C. in a manner previously described^10. The relaxation response to CORM-A1 (40, 80 and 160 μM) was assessed in aortic rings pre-contracted with phenylephrine (3 μM). […] Experiments were also conducted by comparing the effect of CORM-A1 and CORM-3 on vessel relaxation over time.

deoxymyoglobin (Mb) [2] = settings: cited from earlier work
deoxymyoglobin (Mb) [3] = assay: Detection of CO release: conversion of deoxymyoglobin (Mb) to carbonmonoxy myoglobin (MbCO); format: physicochemical
Method: The release of CO from CORM-A1 was assessed spectrophotometrically by measuring the conversion of deoxymyoglobin (Mb) to carbonmonoxy myoglobin (MbCO) by a method previously described^23. The amount of MbCO formed was quantified by measuring the absorbance at 540 nm (extinction coefficient=[…]) over time at 37° C. Myoglobin solutions (approximately 50 μmol/L final concentration) were prepared fresh by dissolving the protein in 0.04 M phosphate buffer (pH=7.4). Sodium dithionite (0.1%) was added to convert the oxidized myoglobin to its reduced form prior to each reading. Some experiments were also conducted using Mb at pH=5.5 or at room temperature (RT) in order to examine the kinetic of CO release from CORM-A1 under different chemical and physical conditions.
The amount of MbCO formed after addition of CORM-A1 to the Mb solution can be quantified by measuring the absorbance at 540 nm knowing the extinction coefficient for MbCO (ε=[…]). CORM-A1 at three different concentrations was added to a solution containing Mb at room temperature and the formed MbCO was calculated over time.

[4] = test system: aortic rings pre-contracted with phenylephrine; assay: Isolated aortic ring preparation: relaxation response to CORM-A1 in presence or absence of YC-1, phenylephrine 1 μmol/L; format: cell-based, male Lewis rats
Method: Transverse ring sections of thoracic aorta were isolated from male Lewis rats and suspended under a 2 g tension in an organ bath containing oxygenated Krebs-Henseleit buffer at 37° C. in a manner previously described. […] YC-1 was added to the isolated rings 30 min prior to contraction with phenylephrine.

[5] = test system: mean arterial pressure (MAP); assay: Effect of CORM-A1 and YC-1 on mean arterial pressure (MAP) in anaesthetised rats; format: in vivo, Lewis rats
Method: Lewis rats (280-350 g) were anaesthetised by intramuscular injection of 1 ml/kg Hypnorm. Specially designed femoral artery and venous catheters were then surgically implanted and mean arterial pressure (MAP) monitored continuously using a polygraph recorder in a manner previously described. The effect of CORM-A1 on mean arterial pressure (MAP) over time was assessed following an intravenous (i.v.) injection of 50 μmol kg^−1. Similar experiments were conducted by administering YC-1 (1.2 μmol kg^−1, i.v.) to animals 5 min prior to the bolus addition of CORM-A1. Control experiments using YC-1 alone were also performed.
Femoral artery and venous catheters were surgically implanted into anesthetized Lewis rats and blood pressure continuously monitored as previously described by us. The effect of CORM-A1 and YC-1 on mean arterial pressure (MAP) in vivo is represented in FIG. 11. The compounds were injected intravenously as a bolus at a final concentration of 50 μmoles/kg for CORM-A1 and 1.2 μmol kg^−1 for YC-1. When the two compounds were given in combination, YC-1 was administered 10 min prior to CORM-A1 injection. As shown, CORM-A1 produced a gradual and sustained decrease in MAP over time; for instance, 60 min after CORM-A1 injection MAP decreased by 6.3±1.5 mmHg from the initial baseline value. Injection with YC-1 alone also produced an effect on blood pressure; however, the decrease in MAP was only transient, reaching a maximum of 5.5±1.0 mmHg after 10 min and returning to basal levels 50 min after injection. […] The data are represented as the mean±s.e.m. of 5 independent experiments for each group. *P<0.05 vs. baseline (−10 min); ^⇑P<0.05 vs. CORM-A1 alone or YC-1 alone.

[6] = distilled water at basic pH; cited from earlier work

## NCC(=O)O.[CH+]=O.[CH+]=O.[CH+]=O.[Cl][Ru] [CORM-3, Tricarbonylchloro(glycinato)ruthenium(II)]
[1]; 80 μM
  time after addition at which the stated relaxation was reached: 4 to 5 min
[1]; 80 μM, within 4-5 min
  relaxation: 75%
Deoxymyoglobin (Mb) [2]; added to a solution containing myoglobin (Mb), 1 mole CO per mole compound
  time in which CO is liberated to Mb: 1 to 2 min
Deoxymyoglobin (Mb) [2]; added to a solution containing myoglobin (Mb), within 1-2 min
  CO liberated per mole of compound: 1 mole of CO per mole of compound
Deoxymyoglobin (Mb) [2]; from recent works
  time of liberation of CO to Mb or in biological systems: approximately 5 min

## [BH3-]C(=O)[O-].[Na+].[Na+] [CORM-A1, Disodium boranocarbonate]
Deoxymyoglobin (Mb) [3]; 15.6 μM CORM-A1, room temperature
  calculated Ymax of MbCO formed: 16.7±1.2
Deoxymyoglobin (Mb) [3]; 31.1 μM CORM-A1, room temperature
  calculated Ymax of MbCO formed: 33.1±1.4
Deoxymyoglobin (Mb) [3]; 46.7 μM CORM-A1, room temperature
  calculated Ymax of MbCO formed: 48.2±2.5
Deoxymyoglobin (Mb) [3]; 60 μM, pH=7.4, 37° C., MbCO spectrum after 210 min incubation
  conversion of Mb to MbCO: gradual formation of MbCO over time
Deoxymyoglobin (Mb) [3]; aqueous solution, room temperature, reaction to completion
  CO liberated per mole of compound: one mole of CO per mole of compound
Deoxymyoglobin (Mb) [3]; physiological pH
  release of CO at physiological pH: 18.4 min
[4]; 1 μM CORM-A1, vessels pre-treated with YC-1
  relaxation: 35±9.8%
[4]; 10 μM CORM-A1, vessels pre-treated with YC-1
  relaxation: 51±3.3%
[4]; 20 μM after pre-treatment of vessels with YC-1 (1 μM)
  relaxation: 61±6.2%
[4]; 20 μM alone, after 20 min
  relaxation: 13±4.9%
[1]; 40 μM
  percentage of relaxation compared to control: 21.0±2.3%
[1]; 80 μM
  time after addition at which the stated relaxation was reached: 33 min
  vasorelaxation (in words): gradual and profound vasorelaxation
  percentage of relaxation compared to control: 40.2±3.4%
[1]; 80 μM, 33 min following addition
  maximal vasorelaxation: 96%
[1]; 160 μM
  percentage of relaxation compared to control: 74.9±1.8%
[5]; 50 μmoles/kg i.v. bolus, 60 min after injection
  decrease in MAP from initial baseline: 6.3±1.5 mmHg
[5]; CORM-A1 50 μmoles/kg i.v. in combination with YC-1 1.2 μmol kg^−1 given 10 min prior, after 10 min
  decrease in MAP: 16.1±5.6 mmHg
[6]
  stability in water: relatively stable

## [BH4-].[Na+] [NaBH4, Sodium borohydride, reference compound]
[1]; 80 μM
  vasorelaxation (in words): totally ineffective

## OCc1ccc(-c2nn(Cc3ccccc3)c3ccccc23)o1 [YC-1, 3-(5′-hydroxymethyl-2′-furyl)-1-benzyl-indazole, reference compound]
[4]; YC-1 alone (1 μM), after 20 min
  relaxation: 2.8±1.1%
[5]; YC-1 alone 1.2 μmol kg^−1 i.v., after 10 min
  maximum decrease in MAP: 5.5±1.0 mmHg
[5]; YC-1 alone 1.2 μmol kg^−1 i.v., after injection
  time to return of MAP to basal levels: 50 min
